Test results: patent US4416884A, “Piperazinylbenzoheterocyclic compounds” (Otsuka Pharmaceutical Co., Ltd., priority 1978, dated 1983)
≈ marks a conversion by molar mass, not a printed value. Where two headings read alike, the source gives them in different places.

How the values were obtained:
Type in all cases: cell-based
[1] = tested on: Bacillus subtilis PCI 219; experiment: antimicrobial activity, serial dilution method on agar plate
Outline: (§1)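 Two inoculum levels used: 1×10^8 cells/ml (O.D. 660 mμ = 0.07–0.16) and a diluted 1×10^6 cells/ml preparation. Minimum inhibitory concentrations in mcg/ml read from serial dilution on Heart Infusion agar plates.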

[2] = tested on: Enterobacter aerogenes IFO 12979; experiment: as above; conditions: Klebsiella aerogenes
Outline: as §1

[3] = tested on: Klebsiella pneumoniae ST-101; experiment: as above
Outline: as §1

[4] = tested on: Klebsiella pneumoniae; experiment: as above
Outline: as §1

[5] = tested on: Proteus morganii IID Kono; experiment: as above; conditions: Morganella morganii
Outline: as §1

[6] = tested on: Proteus rettgeri NIH 96; experiment: as above; conditions: Providencia rettgeri
Outline: as §1

[7] = tested on: Proteus vulgaris IID OX-19; experiment: as above; conditions: read-out: Minimum Inhibitory Concentration
Outline: as §1

[8] = tested on: Pseudomonas aeruginosa ATCC 10145; experiment: as above
Outline: as §1

[9] = tested on: Pseudomonas aeruginosa E-2; experiment: as above
Outline: as §1

[10] = tested on: Pseudomonas aeruginosa NCTC 10490; experiment: as above
Outline: as §1

[11] = tested on: Serattia marcescens IFO 12648; experiment: as above
Outline: as §1

[12] = tested on: Shigella Sonnei EW 33; experiment: as above; conditions: read-out: Minimum Inhibitory Concentration
Outline: as §1

[13] = tested on: Staphylococcus aureus FDA 209 P; experiment: as above
Outline: as §1

[14] = tested on: Streptococcus pneumoniae Type III; experiment: as above
Outline: as §1

[15] = tested on: Streptococcus pneumoniae Type II; experiment: as above
Outline: as §1

[16] = tested on: Streptococcus pneumoniae Type I; experiment: as above
Outline: as §1

[17] = tested on: Streptococcus pyogenes IID Cook; experiment: as above
Outline: as §1

[18] = tested on: Streptococcus pyogenes IID S-23; experiment: as above
Outline: as §1

[19] = tested on: Test Organism 1 (Escherichia Coli NIHJ); experiment: influence of the addition of horse serum on the MIC
[20] = tested on: Test Organism 27 (Streptococcus pneumoniae Type III); experiment: as above
[21] = read-out: Minimum Inhibitory Concentration, inoculum 1 × 10^6 cells/ml
[22] = read-out: Minimum Inhibitory Concentration, inoculum 1 × 10^8 cells/ml
[23] = read-out: Minimum Inhibitory Concentration, horse serum 0%, inoculum 10^6
[24] = read-out: Minimum Inhibitory Concentration, horse serum 0%, inoculum 10^8
[25] = read-out: Minimum Inhibitory Concentration, horse serum 10%, inoculum 10^6
[26] = read-out: Minimum Inhibitory Concentration, horse serum 10%, inoculum 10^8
[27] = read-out: Minimum Inhibitory Concentration, horse serum 20%, inoculum 10^6
[28] = read-out: Minimum Inhibitory Concentration, horse serum 20%, inoculum 10^8
[29] = read-out: Minimum Inhibitory Concentration, horse serum 40%, inoculum 10^6
[30] = read-out: Minimum Inhibitory Concentration, horse serum 40%, inoculum 10^8

CC1Cc2c(N3CCNCC3)ccc3c(=O)c(C(=O)O)cn1c23 (stereo not shown) [C] showed an MIC ([1]; PCI219, read-out: Minimum Inhibitory Concentration, inoculum 1 × 10^6 cells/ml) of 3.1 µg/mL (≈ 9.89 µM), an MIC ([1]; PCI219, read-out: Minimum Inhibitory Concentration, inoculum 1 × 10^8 cells/ml) of 3.1 µg/mL (≈ 9.89 µM) and an MIC ([2]; IFO12979, read-out: Minimum Inhibitory Concentration, inoculum 1 × 10^6 cells/ml) of 0.4 µg/mL (≈ 1.28 µM). The MIC ([2]; IFO12979, read-out: Minimum Inhibitory Concentration, inoculum 1 × 10^8 cells/ml) was 0.8 µg/mL (≈ 2.55 µM), the MIC ([3]; ST101, read-out: Minimum Inhibitory Concentration, inoculum 1 × 10^6 cells/ml) was 0.2 µg/mL (≈ 0.638 µM) and the MIC ([3]; ST101, read-out: Minimum Inhibitory Concentration, inoculum 1 × 10^8 cells/ml) was 0.8 µg/mL (≈ 2.55 µM). For the same compound, the MIC [4, 21] was 0.8 µg/mL (≈ 2.55 µM), the MIC [4, 22] was 0.8 µg/mL (≈ 2.55 µM) and the MIC [5, 21] was 3.1 µg/mL (≈ 9.89 µM). For the same compound, the MIC [5, 22] was 3.1 µg/mL (≈ 9.89 µM), the MIC ([6]; NIH96, read-out: Minimum Inhibitory Concentration, inoculum 1 × 10^6 cells/ml) was 0.8 µg/mL (≈ 2.55 µM) and the MIC ([6]; NIH96, read-out: Minimum Inhibitory Concentration, inoculum 1 × 10^8 cells/ml) was 0.8 µg/mL (≈ 2.55 µM). The MIC ([7]; IIDOX19, inoculum 1 × 10^6 cells/ml) was 0.8 µg/mL (≈ 2.55 µM), the MIC ([7]; IIDOX19, inoculum 1 × 10^8 cells/ml) was 3.1 µg/mL (≈ 9.89 µM) and the MIC ([8]; ATCC10145, read-out: Minimum Inhibitory Concentration, inoculum 1 × 10^6 cells/ml) was 6.3 µg/mL (≈ 20.1 µM). It also gave an MIC ([8]; ATCC10145, read-out: Minimum Inhibitory Concentration, inoculum 1 × 10^8 cells/ml) of 6.3 µg/mL (≈ 20.1 µM), an MIC ([9]; E2, read-out: Minimum Inhibitory Concentration, inoculum 1 × 10^6 cells/ml) of 3.1 µg/mL (≈ 9.89 µM) and an MIC ([9]; E2, read-out: Minimum Inhibitory Concentration, inoculum 1 × 10^8 cells/ml) of 6.3 µg/mL (≈ 20.1 µM). The MIC ([10]; NCTC10490, read-out: Minimum Inhibitory Concentration, inoculum 1 × 10^6 cells/ml) was 3.1 µg/mL (≈ 9.89 µM), the MIC ([10]; NCTC10490, read-out: Minimum Inhibitory Concentration, inoculum 1 × 10^8 cells/ml) was 6.3 µg/mL (≈ 20.1 µM) and the MIC [11, 21] was 1.6 µg/mL (≈ 5.11 µM). The MIC [11, 22] was 3.1 µg/mL (≈ 9.89 µM), the MIC ([12]; inoculum 1 × 10^6 cells/ml) was 1.6 µg/mL (≈ 5.11 µM) and the MIC ([12]; inoculum 1 × 10^8 cells/ml) was 1.6 µg/mL (≈ 5.11 µM). It also gave an MIC ([13]; FDA209, read-out: Minimum Inhibitory Concentration, inoculum 1 × 10^6 cells/ml) of 25 µg/mL (≈ 79.8 µM), an MIC ([13]; FDA209, read-out: Minimum Inhibitory Concentration, inoculum 1 × 10^8 cells/ml) of 25 µg/mL (≈ 79.8 µM) and an MIC [14, 21] of 50 µg/mL (≈ 160 µM). The MIC [14, 22] was 100 µg/mL (≈ 319 µM), the MIC [15, 21] was 50 µg/mL (≈ 160 µM) and the MIC [15, 22] was 100 µg/mL (≈ 319 µM). For the same compound, the MIC [16, 21] was 50 µg/mL (≈ 160 µM), the MIC [16, 22] was 100 µg/mL (≈ 319 µM) and the MIC [17, 21] was 25 µg/mL (≈ 79.8 µM). It also gave an MIC [17, 22] of 50 µg/mL (≈ 160 µM), an MIC ([18]; IIDS23, read-out: Minimum Inhibitory Concentration, inoculum 1 × 10^6 cells/ml) of 50 µg/mL (≈ 160 µM) and an MIC ([18]; IIDS23, read-out: Minimum Inhibitory Concentration, inoculum 1 × 10^8 cells/ml) of 100 µg/mL (≈ 319 µM). For the same compound, the MIC [19, 23] was 12.5 µg/mL (≈ 39.9 µM), the MIC [19, 24] was 12.5 µg/mL (≈ 39.9 µM) and the MIC [19, 25] was 6.3 µg/mL (≈ 20.1 µM). For the same compound, the MIC [19, 26] was 12.5 µg/mL (≈ 39.9 µM), the MIC [19, 27] was 6.3 µg/mL (≈ 20.1 µM) and the MIC [19, 28] was 12.5 µg/mL (≈ 39.9 µM). For the same compound, the MIC [19, 29] was 6.3 µg/mL (≈ 20.1 µM), the MIC [19, 30] was 12.5 µg/mL (≈ 39.9 µM) and the MIC [20, 23] was 3.1 µg/mL (≈ 9.89 µM). For the same compound, the MIC [20, 24] was 6.3 µg/mL (≈ 20.1 µM), the MIC [20, 25] was 3.1 µg/mL (≈ 9.89 µM) and the MIC [20, 26] was 6.3 µg/mL (≈ 20.1 µM). It also gave an MIC [20, 27] of 3.1 µg/mL (≈ 9.89 µM), an MIC [20, 28] of 3.1 µg/mL (≈ 9.89 µM) and an MIC [20, 29] of 1.6 µg/mL (≈ 5.11 µM). It also gave an MIC [20, 30] of 3.1 µg/mL (≈ 9.89 µM).
